Reference: PubChem BioAssay (NCI)
Several values for one entry are separate records, joined by “and”; a condition that tells them apart may be missing. Identical values can stand only once.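 All cell lines were grown in 96-well plates and treated with compound for 48 hours. GI50 marks 50% less growth. TGI: concentration producing complete growth inhibition.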 Where a SMILES comes first, the peptide text is derived from it. [ ]: non-standard residue; d: D form. The star is where a group is joined. Bn2Val = CC(C)[C@@H](C(=O)*)N(Cc1ccccc1)Cc1ccccc1; NH(3,4-diMeO-benzyl) = COc1ccc(CN*)cc1OC; NMeV = CN[C@H](C(=O)O)C(C)C; dNMeA = CN[C@H](C)C(=O)O

Columns and labels:
Assay in all cases: inhibition of tumour cell growth, NCI panel, 48 h
OVCAR-4 ovarian = system: OVCAR-4 ovarian
SK-MEL-5 melanoma = system: SK-MEL-5 melanoma
SF-268 CNS = system: SF-268 CNS
SK-MEL-28 melanoma = system: SK-MEL-28 melanoma
SW-620 colon = system: SW-620 colon
NCI-H226 lung = system: NCI-H226 lung
NCI-H460 lung = system: NCI-H460 lung
NCI-H23 lung = system: NCI-H23 lung
HCT-15 colon = system: HCT-15 colon
UACC-257 melanoma = system: UACC-257 melanoma

| Compound | GI50 (OVCAR-4 ovarian) [µM] | TGI (OVCAR-4 ovarian) | GI50 (SK-MEL-5 melanoma) [µM] | TGI (SK-MEL-5 melanoma) [µM] | GI50 (SF-268 CNS) [µM] | TGI (SF-268 CNS) | GI50 (SK-MEL-28 melanoma) [µM] | TGI (SK-MEL-28 melanoma) | GI50 (SW-620 colon) [µM] | TGI (SW-620 colon) | GI50 (NCI-H226 lung) [µM] | TGI (NCI-H226 lung) | GI50 (NCI-H460 lung) [µM] | TGI (NCI-H460 lung) | GI50 (NCI-H23 lung) [µM] | TGI (NCI-H23 lung) | GI50 (HCT-15 colon) [µM] | TGI (HCT-15 colon) | GI50 (UACC-257 melanoma) [µM] | TGI (UACC-257 melanoma) |
| --- | --- | --- | --- | --- | --- | --- | --- | --- | --- | --- | --- | --- | --- | --- | --- | --- | --- | --- | --- | --- |
| N#Cc1nc(-c2ccc(F)cc2)oc1S(=O)(=O)N1CCOCC1 | 3.08 | 10.2 µM | 6.33 | 18.8 | 11 | 25.4 µM | 2.41 | 6.25 µM | 1.57 | 3.24 µM | 4.33 | 19.9 µM | 12.6 | 27.3 µM | 10.4 | 25.4 µM | 1.98 | 5.37 µM | 7 | 20.7 µM |
| Cc1c(Cl)cccc1Nc1ncccc1C(=O)O | 90.6 | > 100 µM | 52.7 | > 100 | > 100 | > 100 µM | > 100 | > 100 µM | > 100 | > 100 µM | > 100 | > 100 µM | 53 | > 100 µM | 58.3 | > 100 µM | 38.1 | > 100 µM | > 100 | > 100 µM |
| COc1cc2c(c(O)c1C)C(=O)C(Cl)=CC2=O |  | 33.7 µM |  | 21.7 |  | 40 µM |  | 35.1 µM |  | 8.29 µM |  | 36.5 µM |  | 63.3 µM |  | 25 µM |  | 27.6 µM |  | 18.7 µM |
| Fc1ccc(-c2nn(-c3ccccc3)cc2-c2nc3ccccc3o2)cc1 | 9.12 | > 100 µM | 5.72 | 19.3 | 4.53 | > 100 µM | 13.4 | 39.4 µM | 3.12 | 36.4 µM | 13.6 | 32 µM | 2.84 | 9.95 µM | 2.26 | 11.7 µM | 1.83 | 39 µM | 13.3 | 48.2 µM |
| CN=C1NC(=O)/C(=C/c2ccc3ncccc3c2)S1 | 10.2 | > 25 µM | 7.44 | > 20.1 | 10.7 | > 25 µM | 10.5 | > 25 µM | 8.41 | > 25 µM | 8.16 | > 25 µM | 7.79 | > 25 µM | 8.38 | > 25 µM | 6.09 | > 25 µM | 7.18 | > 25 µM |
| COc1ccc(CN2CCCC(C(=O)c3ccc(C(F)(F)F)cc3)C2)c(O)c1 (configuration not stated) | 29.2 | > 100 µM | 15.9 | 29.8 | 42.1 | > 100 µM | 17.1 | 43.9 µM | 18.6 | 41.2 µM | 35.5 | > 100 µM | 26.7 | > 100 µM | 28.5 | > 100 µM | 14.6 | 36 µM | 24.2 | 74.4 µM |
| OCCNCO |  | > 100 µM |  | > 100 |  | > 100 µM |  | > 100 µM |  | > 100 µM |  | > 100 µM |  | > 100 µM |  | > 100 µM |  | > 100 µM |  | > 100 µM |
| CC1=C2[C@@H](CC1)[C@]1(C)O[C@@](C(C)C)(C[C@H]1OC(=O)[C@H](C)O)[C@H]2OC(=O)/C=C/c1ccccc1 | 10.3 | 24.9 µM | 13.6 | 26.7 | 2.13 | 23.1 µM | 16.5 | 34.3 µM | 16.4 | 33.9 µM | 12.9 | 29.6 µM | 14.8 | 36.7 µM | 14.3 | 33.3 µM | 11.2 | 25.4 µM | 17 | 34.1 µM |
| O=C(Cc1ccc(/C=C/C(=O)c2ncc[nH]2)cc1)Nc1ccc(Cl)cc1 | 4.11 | > 25 µM | 6.16 | 17.4 | 1.65 | > 25 µM | 4.81 | 11.7 µM | 1.43 | > 25 µM | 7.5 | > 25 µM | 3.43 | > 25 µM | 2.97 | 11.5 µM | 0.879 | 5.99 µM | 7.24 | 19 µM |
| CC(C)(C)C1=NC(S)NC(CCC(=O)Nc2ccccc2[N+](=O)[O-])=C1 (configuration not stated) |  | > 100 µM |  | > 100 |  | > 100 µM |  | > 100 µM |  | > 100 µM |  | > 100 µM |  | > 100 µM |  | > 100 µM |  | > 100 µM |  | > 100 µM |
| COc1ccc(CNC(=O)[C@@H](C)N(C)C(=O)[C@@H]2CCCN2C(=O)[C@H](C(C)C)N(C)C(=O)[C@@H](NC(=O)[C@H](C(C)C)N(Cc2ccccc2)Cc2ccccc2)C(C)C)cc1OC (Bn2Val-V[NMeV]P[dNMeA]-{NH(3,4-diMeO-benzyl)}) | 7.54 | 50 µM and 42.2 µM |  | 12.1 | 17.6 | 14.8 µM and > 100 µM | 13.5 | 17.6 µM and 28.3 µM |  | 41.7 µM and 38 µM | 13.7 | 15.3 µM and 31.3 µM | 8.21 | 50 µM and 37.9 µM |  | 26.6 µM and 42.4 µM | 5.98 | 21.5 µM and 28.8 µM | 10.2 | 21.8 µM and 23.5 µM |
